This assay concerns the target T1, PD-1/PD-L1 (Homo sapiens, UniProt Q9NZQ7).
T1 construct: made in house; host or cells: HEK293T
Put plainly: PD-1/PD-L1 Homogenous Time-Resolved Fluorescence (HTRF) binding assay. The note with it: PD-L1-His 10 nM, PD-1-Ig 20 nM; value given as range class; read-out: Range or IC50. The gist of the method: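 Detection by europium cryptate anti-Ig plus APC anti-His (1 nM and 20 nM final) with HTRF signal. Buffer was dPBS, 0.1% BSA, 0.05% Tween-20.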
On the technique in general: In TR-FRET formats the signal depends on donor and acceptor labels being close together.

For 20 compounds, IC50 results are on record in patent publication US10745382B2 (BRISTOL-MYERS SQUIBB COMPANY, priority 2015, dated 2020).

pIC50: −log10 of the molar value.

T1 sequence (Q9NZQ7 with tags, fused parts or gaps): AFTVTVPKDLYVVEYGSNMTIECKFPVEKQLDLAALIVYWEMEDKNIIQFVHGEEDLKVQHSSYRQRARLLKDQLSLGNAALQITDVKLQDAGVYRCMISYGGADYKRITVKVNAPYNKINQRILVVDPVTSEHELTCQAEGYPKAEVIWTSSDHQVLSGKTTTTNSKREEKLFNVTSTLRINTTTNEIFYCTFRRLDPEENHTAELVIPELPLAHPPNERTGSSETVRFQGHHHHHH

Regarding `Cc1c(COc2cc(OCc3cncc(C#N)c3)c(CN[C@@](C)(CO)C(=O)O)cc2Cl)cccc1-c1cccc(OCCCN2CC[C@H](CO)[C@H](O)C2)c1C` [Example 2261, (2S)-2-(5-chloro-2-((5-cyanopyridin-3-yl)methoxy)-4-((3′-(3-((3 S,4R)-3-hydroxy-4-(hydroxymethyl)piperidin-1-yl)propoxy)-2,2′-dimethylbiphenyl-3-yl)methoxy)benzylamino)-3-hydroxy-2-methylpropanoic Acid], the pIC50 was 8.00 to 9.68.

For the compound `Cc1c(COc2cc(OCc3cncc(C#N)c3)c(CN[C@@](C)(CO)C(=O)O)cc2Cl)cccc1-c1cccc(OCCCN2CCC[C@H](O)C2)c1C` [Example 2262, (2S)-2-(5-chloro-2-((5-cyanopyridin-3-yl)methoxy)-4-((3′-(3-((S)-3-hydroxypiperidin-1-yl)propoxy)-2,2′-dimethylbiphenyl-3-yl)methoxy)benzylamino)-3-hydroxy-2-methylpropanoic Acid], the pIC50 was 8.00 to 9.68.

In the case of `Cc1c(COc2cc(OCc3cncc(C#N)c3)c(CN[C@@](C)(CO)C(=O)O)cc2Cl)cccc1-c1cccc(OCCCN2CCN(CCO)CC2)c1C` [Example 2263, (2S)-2-(5-chloro-2-((5-cyanopyridin-3-yl)methoxy)-4-((3′-(3-(4-(2-hydroxyethyl)piperazin-1-yl)propoxy)-2,2′-dimethylbiphenyl-3-yl)methoxy)benzylamino)-3-hydroxy-2-methylpropanoic Acid], the pIC50 was 8.00 to 9.68.

With `Cc1c(COc2cc(OCc3cncc(C#N)c3)c(CN[C@@](C)(CO)C(=O)O)cc2Cl)cccc1-c1cccc(OCCCN2CCC[C@H](C(=O)O)C2)c1C` [Example 2264, (3S)-1-(3-(3′-((4-(((S)-2-carboxy-1-hydroxypropan-2-ylamino)methyl)-2-chloro-5-((5-cyanopyridin-3-yl)methoxy)phenoxy)methyl)-2,2′-dimethylbiphenyl-3-yloxy)propyl)piperidine-3-carboxylic Acid], the negative-log IC50 (pIC50) is 8.00 to 9.68.

`Cc1c(COc2cc(OCc3cncc(C#N)c3)c(CNC[C@H](O)CO)cc2Cl)cccc1-c1cccc(OCCCNC[C@H](O)CO)c1C` [Example 2265, 5-((4-chloro-2-(((S)-2,3-dihydroxypropylamino)methyl)-5-((3′-(3-((S)-2,3-dihydroxypropylamino)propoxy)-2,2′-dimethylbiphenyl-3-yl)methoxy)phenoxy)methyl)nicotinonitrile]: the pIC50 was 8.00 to 9.68.

Regarding `Cc1c(COc2cc(OCc3cncc(C#N)c3)c(CN(C)CCC(N)=O)cc2Cl)cccc1-c1cccc(OCCCN(C)CCC(N)=O)c1C` [Example 2266, 3-((3-(3′-((4-(((3-amino-3-oxopropyl)(methyl)amino)methyl)-2-chloro-5-((5-cyanopyridin-3-yl)methoxy)phenoxy)methyl)-2,2′-dimethylbiphenyl-3-yloxy)propyl)(methyl)amino)propanamide], the pIC50 is 8.00 to 9.68.

As to `CC(=O)N[C@@H]1CCN(CCCOc2cccc(-c3cccc(COc4cc(OCc5cncc(C#N)c5)c(CN5CC[C@@H](NC(C)=O)C5)cc4Cl)c3C)c2C)C1` [Example 2267, N-((3R)-1-(3-(3′-((4-(((R)-3-acetamidopyrrolidin-1-yl)methyl)-2-chloro-5-((5-cyanopyridin-3-yl)methoxy)phenoxy)methyl)-2,2′-dimethylbiphenyl-3-yloxy)propyl)pyrrolidin-3-yl)acetamide], the pIC50 is 8.00 to 9.68.

With `Cc1c(COc2cc(OCc3cncc(C#N)c3)c(CN3CCCC[C@H]3C(=O)O)cc2Cl)cccc1-c1cccc(OCCCN2CCCC[C@H]2C(=O)O)c1C` [Example 2268, (2S)-1-(3-(3′-((4-(((S)-2-carboxypiperidin-1-yl)methyl)-2-chloro-5-((5-cyanopyridin-3-yl)methoxy)phenoxy)methyl)-2,2′-dimethylbiphenyl-3-yloxy)propyl)piperidine-2-carboxylic Acid], the negative logarithm of the IC50 (pIC50) is 8.00 to 9.68.

Consider `CNC1CCN(CCCOc2cccc(-c3cccc(COc4cc(OCc5cncc(C#N)c5)c(CN5CCCC[C@H]5C(=O)O)cc4Cl)c3C)c2C)CC1` [Example 2269, (2S)-1-(5-chloro-2-((5-cyanopyridin-3-yl)methoxy)-4-((2,2′-dimethyl-3′-(3-(4-(methylamino)piperidin-1-yl)propoxy)biphenyl-3-yl)methoxy)benzyl)piperidine-2-carboxylic Acid], for which the pIC50 was 8.00 to 9.68.

`CC(=O)N[C@@H]1CCN(CCCOc2cccc(-c3cccc(COc4cc(OCc5cncc(C#N)c5)c(CN[C@@](C)(CO)C(=O)O)cc4Cl)c3C)c2C)C1` [Example 2270, (2S)-2-(4-((3′-(3-((R)-3-acetamidopyrrolidin-1-yl)propoxy)-2,2′-dimethylbiphenyl-3-yl)methoxy)-5-chloro-2-((5-cyanopyridin-3-yl)methoxy)benzylamino)-3-hydroxy-2-methylpropanoic Acid]: the pIC50 is 8.00 to 9.68.

Consider `Cc1c(COc2cc(OCc3cncc(C#N)c3)c(CN(C)C[C@H](O)CO)cc2Cl)cccc1-c1cccc(OCCCN(C)C[C@H](O)CO)c1C` [Example 2271, 5-((4-chloro-2-((((S)-2,3-dihydroxypropyl)(methyl)amino)methyl)-5-((3′-(3-(((S)-2,3-dihydroxypropyl)(methyl)amino)propoxy)-2,2′-dimethylbiphenyl-3-yl)methoxy)phenoxy)methyl)nicotinonitrile], for which the pIC50 is 8.00 to 9.68.

With `Cc1c(COc2cc(OCc3cncc(C#N)c3)c(CN[C@@](C)(CO)C(=O)O)cc2Cl)cccc1-c1cccc(OCCCN2CCCCC2)c1C` [Example 2272, (S)-2-((5-chloro-2-((5-cyanopyridin-3-yl)methoxy)-4-((2,2′-dimethyl-3′-(3-(piperidin-1-yl)propoxy)-[1,1′-biphenyl]-3-yl)methoxy)benzyl)amino)-3-hydroxy-2-methylpropanoic Acid], the pIC50 was 8.00 to 9.68.

`Cc1c(COc2cc(OCc3cncc(C#N)c3)c(CN[C@@](C)(CO)C(=O)O)cc2Cl)cccc1-c1cccc(OCCCN2CCOCC2)c1C` [Example 2273, (S)-2-((5-chloro-2-((5-cyanopyridin-3-yl)methoxy)-4-((2,2′-dimethyl-3′-(3-morpholinopropoxy)-[1,1′-biphenyl]-3-yl)methoxy)benzyl)amino)-3-hydroxy-2-methylpropanoic Acid]: the pIC50 was 8.00 to 9.68.

For `Cc1c(COc2cc(OCc3cncc(C#N)c3)c(CN[C@@](C)(CO)C(=O)O)cc2Cl)cccc1-c1cccc(OCCCN2CCC(NC(=O)C(F)(F)F)C2)c1C` (stereo partly drawn) [Example 2274, (2S)-2-((5-chloro-2-((5-cyanopyridin-3-yl)methoxy)-4-((2,2′-dimethyl-3′-(3-(3-(2,2,2-trifluoroacetamido)pyrrolidin-1-yl)propoxy)-[1,1′-biphenyl]-3-yl)methoxy)benzyl)amino)-3-hydroxy-2-methylpropanoic Acid], the pIC50 was 8.00 to 9.68.

For `Cc1c(COc2cc(OCc3cncc(C#N)c3)c(CN[C@@](C)(CO)C(=O)O)cc2Cl)cccc1-c1cccc(OCCCN2CCC(CO)CC2)c1C` [Example 2275, (S)-2-((5-chloro-2-((5-cyanopyridin-3-yl)methoxy)-4-((3′-(3-(4-(hydroxymethyl)piperidin-1-yl)propoxy)-2,2′-dimethyl-[1,1′-biphenyl]-3-yl)methoxy)benzyl)amino)-3-hydroxy-2-methylpropanoic Acid], the negative-log IC50 (pIC50) is 8.00 to 9.68.

`CC(=O)N[C@@H]1CCN(CCCOc2cccc(-c3cccc(COc4cc(OCc5cncc(C#N)c5)c(CO)cc4Cl)c3C)c2C)C1` [Example 2276, N-((3R)-1-(3-(3′-((2-chloro-5-((5-cyanopyridin-3-yl)methoxy)-4-(hydroxymethyl)phenoxy)methyl)-2,2′-dimethylbiphenyl-3-yloxy)propyl)pyrrolidin-3-yl)acetamide]: the pIC50 was 8.00 to 9.68.

As for `CO[C@@H]1CCN(CCCOc2cccc(-c3cccc(COc4cc(OCc5cncc(C#N)c5)c(CO)cc4Cl)c3C)c2C)C1` [Example 2277, 5-((4-chloro-2-(hydroxymethyl)-5-((3′-(3-((R)-3-methoxypyrrolidin-1-yl)propoxy)-2,2′-dimethylbiphenyl-3-yl)methoxy)phenoxy)methyl)nicotinonitrile], the negative-log IC50 (pIC50) was 8.00 to 9.68.

As to `CCC(CO)(CO)NCCCOc1cccc(-c2cccc(COc3cc(OCc4cncc(C#N)c4)c(CNC(CC)(CO)CO)cc3Cl)c2C)c1C` [Example 2278, 5-((4-chloro-2-(((1-hydroxy-2-(hydroxymethyl)butan-2-yl)amino)methyl)-5-((3′-(3-((1-hydroxy-2-(hydroxymethyl)butan-2-yl)amino)propoxy)-2,2′-dimethyl-[1,1′-biphenyl]-3-yl)methoxy)phenoxy)methyl)nicotinonitrile], the pIC50 was 8.00 to 9.68.

Regarding `CCC(CO)(CO)NCc1cc(Cl)c(OCc2cccc(-c3cccc(OCCCNC[C@H](O)CO)c3C)c2C)cc1OCc1cncc(C#N)c1` [Example 2279, (S)-5-((4-chloro-5-((3′-(3-((2,3-dihydroxypropyl)amino)propoxy)-2,2′-dimethyl-[1,1′-biphenyl]-3-yl)methoxy)-2-(((1-hydroxy-2-(hydroxymethyl)butan-2-yl)amino)methyl)phenoxy)methyl)nicotinonitrile], the pIC50 was 8.00 to 9.68.

For `CCC(CO)(CO)NCc1cc(Cl)c(OCc2cccc(-c3cccc(OCCCN4CC[C@@H](O)C4)c3C)c2C)cc1OCc1cncc(C#N)c1` [Example 2280, (R)-5-((4-chloro-2-(((1-hydroxy-2-(hydroxymethyl)butan-2-yl)amino)methyl)-5-((3′-(3-(3-hydroxypyrrolidin-1-yl)propoxy)-2,2′-dimethyl-[1,1′-biphenyl]-3-yl)methoxy)phenoxy)methyl)nicotinonitrile], the pIC50 is 8.00 to 9.68.

As a reminder, the pIC50 is the negative decadic logarithm of the IC50, by convention in mol/L.
